Assay results published in patent US20220204539A1, “CD73 INHIBITORS” (BioArdis LLC, priority 2019, published 2022).

Columns and labels:
[1] = target: T1, Recombinant Human 5′-Nucleotidase (CD73) (Homo sapiens, UniProt P21589); experiment: CD73 Enzyme Assay; assay type: biochemical; details: human CD73 0.5 nM, AMP 30 μM, PiColorLock phosphate detection; read-out: Potency (IC50, CD73 enzyme assay)
T1 construct: CHO derived CD73 (Trp27-Lys547), with a C-terminal 6-His tag; 6-His (C); purchased R&D 5795-EN; host or cells: CHO
T1 sequence (P21589 27-547): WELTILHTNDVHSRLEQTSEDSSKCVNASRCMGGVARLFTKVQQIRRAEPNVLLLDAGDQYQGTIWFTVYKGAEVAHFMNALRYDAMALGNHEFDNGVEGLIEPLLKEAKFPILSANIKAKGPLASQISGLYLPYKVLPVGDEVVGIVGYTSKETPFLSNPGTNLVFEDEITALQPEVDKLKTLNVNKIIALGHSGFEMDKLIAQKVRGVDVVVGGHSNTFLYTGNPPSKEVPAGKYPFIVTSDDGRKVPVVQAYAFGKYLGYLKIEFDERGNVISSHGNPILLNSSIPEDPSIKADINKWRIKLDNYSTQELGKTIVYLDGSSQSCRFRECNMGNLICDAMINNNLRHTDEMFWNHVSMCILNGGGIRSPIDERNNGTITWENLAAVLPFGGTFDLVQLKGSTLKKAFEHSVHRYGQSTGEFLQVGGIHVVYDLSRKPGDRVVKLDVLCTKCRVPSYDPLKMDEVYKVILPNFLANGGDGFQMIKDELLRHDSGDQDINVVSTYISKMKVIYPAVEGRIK
Procedure, shortened: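 Human CD73 (CHO-derived Trp27-Lys547, His-tagged; 0.5 nM final) was preincubated with compound for 15 min at 25° C. in Tris pH 7.5 buffer with MgCl2. It then reacted with 30 μM AMP for 20 min at 37° C., and released phosphate was read by malachite green absorbance at 635 nm. IC50 came from four-parameter fits against enzyme and no-enzyme controls.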

[2] = test system: CT-26 murine colon carcinoma; experiment: subcutaneous CT-26 murine colon carcinoma syngeneic model, combination therapy; assay type: in vivo; details: combination with anti-mPDI antibody 10 mg/kg i.p. twice weekly, 4 doses; compound 10 mg/kg iv once a day from day 6 post implant; CT-26 in BALB/c female mice
Description: Some compounds were evaluated preclinically for in vivo therapeutic efficacy as single agents or in combination with other agents. Compounds of the invention show potent anti-tumor effects when dosed in combination with, for example, an anti-mPDI antibody as evidenced by reducing tumor volume in a subcutaneous CT-26 murine colon carcinoma syngeneic model in BALB/c female mice. CT-26 tumor cells were implanted subcutaneously into BALB/c female mice for each experiment. Anti-mPDl antibody (10 mg/kg) was dosed i.p. starting on study day 6 post implant twice weekly for a total of 4 doses. Compound No. 65 (10 mg/kg) or vehicle was administered iv once a day starting on day 6 post implant.

[3] = target: T2, Cell surface CD73 of U87 MG human glioblastoma cells (Homo sapiens, UniProt P21589); experiment: CD73 Cellular Assay; assay type: cell-based; details: 5000 cells per well, 30 μM AMP substrate, read-out: Potency (IC50, CD73 cellular assay)
T2 construct: Cell surface CD73 catalyzes the conversion of adenosine monophosphate (AMP) to adenosine and inorganic phosphate; endogenous in cells; host or cells: U87 MG human glioblastoma cells
T2 sequence (P21589 27-549): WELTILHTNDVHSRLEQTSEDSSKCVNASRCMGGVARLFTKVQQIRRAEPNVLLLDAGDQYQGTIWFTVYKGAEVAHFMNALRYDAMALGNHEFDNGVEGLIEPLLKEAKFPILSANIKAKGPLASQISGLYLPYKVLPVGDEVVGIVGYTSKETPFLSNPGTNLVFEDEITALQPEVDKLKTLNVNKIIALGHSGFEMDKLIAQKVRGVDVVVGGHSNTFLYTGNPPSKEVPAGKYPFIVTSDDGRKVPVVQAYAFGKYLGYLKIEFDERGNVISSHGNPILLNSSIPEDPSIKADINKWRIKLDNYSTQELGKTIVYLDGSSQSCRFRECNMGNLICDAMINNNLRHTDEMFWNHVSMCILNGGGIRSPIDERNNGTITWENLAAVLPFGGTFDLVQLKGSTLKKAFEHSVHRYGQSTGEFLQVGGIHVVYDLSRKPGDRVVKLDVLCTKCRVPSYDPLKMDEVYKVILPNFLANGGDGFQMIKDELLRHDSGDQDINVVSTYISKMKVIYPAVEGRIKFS
Procedure, shortened: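 U87 MG cells (5000/well) preincubated with compound 30 min at 37 °C, 5% CO2, in HEPES-buffered saline pH 7.4 with 0.5% DMSO, then 30 μM AMP (final) for 50 min. Released phosphate in supernatant read colorimetrically at 635 nm; IC50 from four-parameter logistic fit versus cells-plus-substrate and cells-only controls.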

| SMILES | IC50 [1] [nM] | tumor volume [2] | IC50 [3] [nM] |
| --- | --- | --- | --- |
| O=P(O)(O)CP(=O)(O)OC[C@H]1O[C@@H](c2cnc3c(N4CCCC4)nc(Cl)nn23)[C@H](O)[C@@H]1O [Compound 65, [({[(2R,3S,4R,5S)-5-[2-chloro-4-(pyrrolidin-1-yl)imidazo[2,1-f][1,2,4]triazin-7-yl]-3,4-dihydroxyoxolan-2-yl]methoxy}(hydroxy)phosphoryl)methyl]phosphonic Acid] | < 10 | reduction in tumor volume | < 1 |
| O=P(O)(O)CP(=O)(O)OC[C@H]1OC(c2cnc3c(N4CCCC4)nc(Cl)nn23)[C@@H](F)[C@@H]1O (stereo partly drawn) [Compound 73, (((((2R,3R,4S)-5-(2-chloro-4-(pyrrolidin-1-yl)imidazo[2,1-f][1,2,4]triazin-7-yl)-4-fluoro-3-hydroxytetrahydrofuran-2-yl)methoxy)(hydroxy)phosphoryl)methyl)phosphonic Acid] | 10 to 99 |  | 1 to 9.9 |
| C[C@H](Nc1nc(Cl)nn2c(C3O[C@H](COP(=O)(O)CP(=O)(O)O)[C@@H](O)[C@@H]3F)cnc12)c1ccccc1F (stereo partly drawn) [Compound 74, (((((2R,3R,4S)-5-(2-chloro-4-(((S)-1-(2-fluorophenyl)ethyl)amino)imidazo[2,1-f][1,2,4]triazin-7-yl)-4-fluoro-3-hydroxytetrahydrofuran-2-yl)methoxy)(hydroxy)phosphoryl)methyl)phosphonic Acid] | 10 to 99 |  | 10 to 99.9 |
| O=P(O)(O)CP(=O)(O)OC[C@H]1O[C@@H](c2cnc3c(N4CCC(F)(F)C4)nc(Cl)nn23)[C@@H](F)[C@@H]1O [Compound 75, (((((2R,3R,4S,5S)-5-(2-chloro-4-(3,3-difluoropyrrolidin-1-yl)imidazo[2,1-f][1,2,4]triazin-7-yl)-4-fluoro-3-hydroxytetrahydrofuran-2-yl)methoxy)(hydroxy)phosphoryl)methyl)phosphonic Acid] | 10 to 99 |  | 1 to 9.9 |
